Results: the NIST ThermoML archive (doi:10.1016/j.fluid.2013.01.017)
± gives the expanded uncertainty stated by the source.

Conditions: Liquid, Closed cell (Static) method

vapor or sublimation pressure (308.45 K): 6.1 ± 12 kPa
vapor or sublimation pressure (318.42 K): 10.1 ± 12 kPa
vapor or sublimation pressure (323.48 K): 12.8 ± 12 kPa
vapor or sublimation pressure (328.48 K): 16 ± 12 kPa
vapor or sublimation pressure (338.43 K): 24.3 ± 12 kPa
SMILES: FC(F)(F)C(F)(F)C(F)(F)C(F)(F)C(F)(F)C(F)(F)C(F)(F)C(F)(F)F [octadecafluorooctane]
